Measured values as given in patent US20200069668A1, “Therapeutic Combinations of an IRAK4 Inhibitor and a BTK Inhibitor” (Acerta Pharma B.V., priority 2015, published 2020).

Experiments:
NK cells (CD56+/CD107a+) = assay: Whole blood NK cell degranulation with obinutuzumab-opsonised MEC-1 cells; type: cell-based, human; conditions: 1 h pretreatment, obinutuzumab 1 μg/mL, 4 h
Description: Degranulation in whole blood was performed as follows. […] Exponentially growing cells were used. […] A white blood cell (WBC) count of whole blood was performed. […] The ibrutinib control and two blinded BTK inhibitors were diluted in X-VIVO 15 serum-free hematopoietic cell medium (Lonza Group, Ltd.) to concentrations of 200 μM, 20 M and 2 μM. 170 μL aliquots of unmanipulated whole blood were incubated with 10 μL BTK inhibitors or X-VIVO 15 medium for one hour into a plate. […] The samples were placed in a 5% CO2 incubator for 4 hours at 37° C.
After 4 hours, the samples were mixed gently and 50 μL aliquots were removed from each well and placed in fluorescence-activated cell sorting (FACS) test tubes. A 20 μL aliquot of anti-CD56-APC antibody and anti-CD107a-PE antibody was added. The samples were incubated for 20 minutes at room temperature in the dark. An aliquot of 2 mL of FACS lysing solution (BD Biosceinces) was added. The samples were again incubated for 5 minutes, and then centrifuged at 2000 rpm for 5 minutes. Supernatant was discarded and the cell pellet was resuspended in 500 μL of PBS. The samples were analyzed on the flow cytometer for CD107a^+ NK cells (CD56^+).

[1] = system: human platelet-mediated thrombosis; assay: Laser-induced thrombus formation with human platelets in VWF HA1 mice; conditions: in vivo
Description: Injury to the vessel wall of arterioles ([…] diameter) was performed using a pulsed nitrogen dye laser (440 nm, Photonic Instruments) applied through a 20× water-immersion Olympus objective (LUMPlanF1, 0.5 numerical aperature (NA)) of a Zeiss Axiotech vario microscope. […] The extent of thrombus formation was assessed for 2 minutes after injury and the area (μm^2) of coverage determined (Image IQ, Andor Technology).
The BTK inhibitor-treated human platelets were fluorescently labeled and infused continuously through a catheter inserted into the femoral artery.

CD8+ T cells = assay: CD8+ T cell viability; type: cell-based; conditions: ibrutinib effect at higher doses
Description: Total T cells were plated on anti-TCR and anti-CD28 coated wells in the presence of both BTK inhibitors. Neutral culture conditions were used that will not polarize T cells to a helper lineage. […] Statistical significance was calculated using the Mann Whitney T-test.

[2] = In vitro metabolism in hepatocytes with 14C-labeled drug; type: in vitro ADME, and human; conditions: mouse, rat, dog, rabbit, monkey, human hepatocytes
relapsed/refractory CLL = assay: Clinical study in relapsed/refractory CLL: efficacy; type: in vivo, human; conditions: Kaplan-Meier, p-value 0.0206
Description: This study is a multicenter, open-label, nonrandomized, sequential group, dose escalation study. The following dose cohorts will be evaluated:
The investigator rates the subject's response to treatment based on recent guidelines for CLL, as given in Hallek, et al., Blood 2008, 111, 5446-56, and for SLL, as given in Cheson, et al., J. Clin. Oncol. 2007, 25, 579-586.
The analysis of efficacy parameters was performed as follows. The point estimate of the overall response rate will be calculated for the PP analysis set. The corresponding 95% confidence interval also will be derived. The duration of overall response is measured from the time measurement criteria are met for CR or PR (whichever is first recorded) until the first date that recurrent or progressive disease is objectively documented (taking as reference for progressive disease the smallest measurements recorded since the treatment started). […] Progression-free survival is measured from the time of first study drug administration until the first date that recurrent or progressive disease is objectively documented (taking as reference for progressive disease the smallest measurements recorded since the treatment started). […]
The study scheme is a seqential cohort escalation. […] The dose level for Cohort 6 will be determined based on the safety and efficacy of Cohorts 1 to 5, and will not exceed 900 mg/day. […]

[3] = system: BCR activation markers CD69 and CD86; assay: In vivo potency: BCR activation markers after gavage; conditions: mice, 3 hours post-dose, IgM stimulation, compared with Formula (10)
Description: Mice were gavaged at increasing drug concentration and sacrificed at one time point (3 hours post-dose). BCR is stimulated with IgM and the expression of activation markers CD69 and CD86 are monitored by flow cytometry to determine EC50 values.
CD86 and CD69 are cell surface proteins that are BCR activation markers. […] BCR was stimulated with IgM and the expression of activation marker CD69 and CD86 are monitored by flow cytometry to determine EC50 values.

[4] = Cardiovascular function study in awake telemeterized dogs; type: in vivo, male beagle dogs; conditions: single doses through 30 mg/kg
Text: (§1) Formula (2) was well tolerated in standard in vivo Good Laboratory Practices (GLP) studies of pharmacologic safety.

[5] = system: GPVI platelet aggregation; assay: GPVI (convulxin) platelet aggregation; type: cell-based, human
[6] = system: 80 known pharmacologic targets such as G-protein-coupled receptors, nuclear receptors, proteases, and ion channels; assay: Binding assays with 80 known pharmacologic targets; conditions: screened at 10 μM
Text: as §1

ID8 ovarian cancer = assay: ID8 syngeneic orthotropic ovarian cancer model; type: in vivo, mice; conditions: 15 mg/kg/BID orally
Text: Human ovarian cancer models, including the ID8 syngeneic orthotropic ovarian cancer model and other animal models, are described in Fong and Kakar, J. Ovarian Res. 2009, 2, 12; Greenaway, et al., Gynecol. Oncol. 2008, 108, 385-94; Urzua, et al., Tumour Biol. 2005, 26, 236-44; Janat-Amsbury, et al., Anticancer Res. 2006, 26, 3223-28; Janat-Amsbury, et al., Anticancer Res. 2006, 26, 2785-89. […] The results of the study are shown in FIG. 4, FIG. 5, FIG. 6, FIG. 7, FIG. 8, FIG. 9, FIG. 10, and FIG. 11.

CD8+ T cell function = assay: Cytotoxic T cell (CTL) assay; type: cell-based; conditions: relative to vehicle; for CD8+ T cell function as % cytotoxicity: 500 nM
Description: Without being bound by any theory, CD8^+ T cells have two primary effector functions: (1) produce large amounts of IFN-γ (which activates macrophages), and (2) cytolytic activity. […] The targets were B lymphoblasts from lipopolysaccharide (LPS) treated cultures. The assay was performed by incubating different ratios of effectors:targets for 4 hours.

Th17 cells and Treg = assay: Th17 and Treg development from CD4+ T cells; type: cell-based
Description: Enriched CD4^+ T cells are plated on 24-well culture dishes that have been precoated 2 hr with 250 μL anti-TCRβ (0.5 μg/mL) plus anti-CD28 (5 μg/mL) at 37° C. in PBS. The cells are then supplemented with media containing BTK inhibitors along with the skewing cytokines as indicated in the following. The Th17 and Treg cultures are grown for 4 days before analysis. The cells are maintained for an additional 3 days with skewing cytokines (Th17; 20 ng/mL IL-6, 0.5 ng/mL TGF-β, 5 μg/mL IL-4, 5 μg/mL IFN-γ and Treg; 0.5 ng/mL TGF-β, 5 μg/mL IL-4, […] IFN-γ) and are supplemented with IL2 as a growth factor.

BTK = biological target: T1, BTK (Mus musculus, UniProt P35991); assay: Molecular probe assay of BTK occupancy in MDSCs of tumor bearing PDA mice; type: in vivo; conditions: 15 mg/kg BID, Day 8, 4 hours post dose
T1 construct: endogenous in cells; host or cells: granulocytic and monocytic MDSCs from tumour-bearing PDA (KPC) mice dosed in vivo
Text: A molecular probe assay was used to calculate the percent irreversible occupancy of total BTK.

[7] = GLP functional observation battery; type: in vivo; conditions: rats, doses through 300 mg/kg
Text: as §1

NSCLC (KrasLA2) = assay: KrasLA2 NSCLC genetic tumor model; type: in vivo, mice; conditions: 15 mg/kg
Text: The model is designed to have sporadic expression in single cells of G12D mutant Kras off its own promoter triggered by spontaneous intrachromosomal recombination. Johnson, et al. Nature 2001, 410, 1111-16. While the mutant Kras protein is expressed in a few cells in all tissues, tumor development is seen only in the lung at high penetrance.

Raji cells = assay: Rituximab ADCC chromium release assay, Raji targets; type: cell-based, human; conditions: 1 μM, healthy donor NK cells
Description: All in vitro experiments were performed in triplicate.
ADCC assays were performed as follows. Briefly, target cells (Raji or primary CLL) were labeled by incubation at 37° C. with 100 μCi ^51Cr for 4 hours prior to co-culture with NK cells. Cells were washed, enumerated, and then added in triplicate to prepared 96-well plates containing treated NK cells at an effector:target (E:T) ratio of 25:1. […] Cultures were incubated at 37° C. for 4 hours, and then centrifuged. Supernatants were harvested and ^51Cr release was measured by liquid scintillation counting. All experiments were performed in triplicate.

[8] = monotherapy, dose levels through 840 mg; cited from earlier work

T1 sequence (P35991 whole entry): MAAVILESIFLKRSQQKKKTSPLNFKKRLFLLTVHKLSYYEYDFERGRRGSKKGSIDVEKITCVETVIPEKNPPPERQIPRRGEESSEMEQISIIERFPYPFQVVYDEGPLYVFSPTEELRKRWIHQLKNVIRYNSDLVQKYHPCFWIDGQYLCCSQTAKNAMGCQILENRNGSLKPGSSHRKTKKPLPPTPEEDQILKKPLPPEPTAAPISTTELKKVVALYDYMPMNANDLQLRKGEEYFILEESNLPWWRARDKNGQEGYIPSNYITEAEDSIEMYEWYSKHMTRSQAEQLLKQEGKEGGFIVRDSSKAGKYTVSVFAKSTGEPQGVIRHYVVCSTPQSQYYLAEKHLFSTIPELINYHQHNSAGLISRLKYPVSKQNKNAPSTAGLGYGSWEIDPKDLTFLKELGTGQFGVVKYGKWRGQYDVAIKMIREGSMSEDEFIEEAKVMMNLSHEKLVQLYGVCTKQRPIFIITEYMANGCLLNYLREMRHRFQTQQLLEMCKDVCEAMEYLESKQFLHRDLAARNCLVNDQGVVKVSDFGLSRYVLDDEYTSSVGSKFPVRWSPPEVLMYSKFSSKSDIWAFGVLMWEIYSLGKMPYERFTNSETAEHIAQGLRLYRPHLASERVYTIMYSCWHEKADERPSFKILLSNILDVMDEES

Compound: CC#CC(=O)N1CCC[C@H]1c1nc(-c2ccc(C(=O)Nc3ccccn3)cc2)c2c(N)nccn12 [Formula (2)]
- reduction of obinutuzumab-stimulated NK degranulation (NK cells (CD56+/CD107a+)): minimal effect
- effect on human platelet-mediated thrombus formation [1]: no significant effect
- effect on CD8+ T cell viability (CD8+ T cells): no effect
- metabolites found in hepatocytes [2]: two mono-oxidized metabolites and a glutathione conjugate
- progression-free survival versus ibrutinib-treated patients (relapsed/refractory CLL): improvement in survival
- in vivo potency at inhibiting expression of activation markers CD69 and CD86 [3]: more potent
- treatment-related adverse event: Headache (Grade 1/2, All (N = 44)): 7 (16) n (%)
- treatment-related adverse event: Diarrhea (Grade 1, All (N = 44)): 4 (9) n (%)
- treatment-related adverse event: Increased tendency to bruise (Grade 1, All (N = 44)): 6 (14) n (%)
- treatment-related adverse event: Petechiae (Grade 1, All (N = 44)): 3 (7) n (%)
- dose-limiting toxicities (DLTs) (relapsed/refractory CLL): No DLTs
- grade of adverse events observed (relapsed/refractory CLL): only grade 1 AEs
- lymphocytosis (relapsed/refractory CLL): lack of lymphocytosis
- treatment-related serious adverse events (SAEs) (relapsed/refractory CLL): No treatment-related serious adverse events
- body temperature, cardiovascular and ECG (including QT interval) parameters [4]: no meaningful changes
- effect on GPVI platelet aggregation [5]: does not
- activity in binding assays with 80 pharmacologic targets [6]: significant activity only against the A3 adenosine receptor
- CD8+ T cells (ID8 ovarian cancer): increase
- immunosuppressive B cells, including Bregs (ID8 ovarian cancer; tumor-bearing mice): significant reduction
- CD8+ T cell function as % cytotoxicity (CD8+ T cell function): no effect
- CD8+ T cell function as IFN-γ level (CD8+ T cell function): no effect
- effect on T helper 17 (Th17) cells (Th17 cells and Treg): no adverse effect
- effect on regulatory T cell (Treg) development (Th17 cells and Treg): no effect
- irreversible BTK occupancy in granulocytic and monocytic MDSCs (BTK): Complete BTK occupancy
- neurobehavioral effects and body temperature [7]: no adverse effects
- tumor volumes versus vehicle (NSCLC (KrasLA2)): significant decrease

Compound: C=CC(=O)N1CCC[C@@H](n2nc(-c3ccc(Oc4ccccc4)cc3)c3c(N)ncnc32)C1 [Formula (10), reference compound]
- effect on CD8+ T cell viability (CD8+ T cells): strongly affects
- effect on antibody-dependent lysis of rituximab-coated Raji cells (Raji cells): strongly inhibited
- effect on GPVI platelet aggregation [5]: significantly inhibits
- maximum tolerated dose [8]: No maximum tolerated dose (MTD) was apparent
- CD8+ T cell function as % cytotoxicity (CD8+ T cell function): affects
- CD8+ T cell function as IFN-γ level (CD8+ T cell function): affects
- effect on T helper 17 (Th17) cells (Th17 cells and Treg): strongly inhibits
- effect on regulatory T cell (Treg) development (Th17 cells and Treg): strongly increases
